Test results taken from the supplement of paper PMC10307832.

How the values were obtained:
Assay in all cases: relative viability (nuclei count vs DMSO), 5 days (fraction); higher = more cells survive
NCI-H1437 = test system: NCI-H1437
Summary of the method: (§1)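 Relative viability equals treated-well nuclei counts divided by vehicle-well nuclei counts. Counts came from 4× images of lung cancer cell lines grown in 1536-well plates for 5 days after pin-tool dosing on the day after seeding. Dosing used one drug alone or a fixed anchor-drug dose plus five library-drug doses (not always all listed) in √10 steps, and values are medians of duplicate plates.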

NCI-H2087 = test system: NCI-H2087
Summary of the method: as §1

NCI-H650 = test system: NCI-H650
Summary of the method: as §1

PC-3 [JPC-3] = test system: PC-3 [JPC-3]
Summary of the method: as §1

LOU-NH91 = test system: LOU-NH91
Summary of the method: as §1

H3255 = test system: H3255
Summary of the method: as §1

201T = test system: 201T
Summary of the method: as §1

NCI-H647 = test system: NCI-H647
Summary of the method: as §1

LCLC-97TM1 = test system: LCLC-97TM1
Summary of the method: as §1

BEN = test system: BEN
Summary of the method: as §1

NCI-H1975 = test system: NCI-H1975
Summary of the method: as §1

EPLC-272H = test system: EPLC-272H
Summary of the method: as §1

HCC-44 = test system: HCC-44
Summary of the method: as §1

SW 1573 = test system: SW 1573
Summary of the method: as §1

NCI-H2085 = test system: NCI-H2085
Summary of the method: as §1

EKVX = test system: EKVX
Summary of the method: as §1

COR-L 105 = test system: COR-L 105
Summary of the method: as §1

NCI-H1666 = test system: NCI-H1666
Summary of the method: as §1

NCI-H2170 = test system: NCI-H2170
Summary of the method: as §1

LU99A = test system: LU99A
Summary of the method: as §1

HCC-827 = test system: HCC-827
Summary of the method: as §1

For `CCN(CC)CCCCNc1ncc2cc(-c3cc(OC)cc(OC)c3)c(NC(=O)NC(C)(C)C)nc2n1` + CS(=O)(=O)CCNCc1ccc(-c2ccc3ncnc(Nc4ccc(OCc5cccc(F)c5)c(Cl)c4)c3c2)o1 [Lapatinib] (partner 2 µM), the relative viability (NCI-H1437; first compound 0.01 µM) was 0.809, the relative viability (NCI-H1437; first compound 0.03162 µM) was 0.841 and the relative viability (NCI-H1437; first compound 0.1 µM) was 0.906. It also gave a relative viability (NCI-H1437; first compound 0.3162 µM) of 0.909, a relative viability (NCI-H1437; first compound 1 µM) of 0.653 and a relative viability (NCI-H2087; first compound 0.01 µM) of 1.15. The relative viability (NCI-H2087; first compound 0.03162 µM) was 0.99, the relative viability (NCI-H2087; first compound 0.1 µM) was 1.23 and the relative viability (NCI-H2087; first compound 0.3162 µM) was 1.06. The relative viability (NCI-H2087; first compound 1 µM) was 1.07, the relative viability (NCI-H650; first compound 0.01 µM) was 0.988 and the relative viability (NCI-H650; first compound 0.03162 µM) was 0.944. For the same molecule, the relative viability (NCI-H650; first compound 0.1 µM) was 1.06, the relative viability (NCI-H650; first compound 0.3162 µM) was 1.18 and the relative viability (NCI-H650; first compound 1 µM) was 0.734. It also gave a relative viability (PC-3 [JPC-3]; first compound 0.01 µM) of 0.479, a relative viability (PC-3 [JPC-3]; first compound 0.03162 µM) of 0.453 and a relative viability (PC-3 [JPC-3]; first compound 0.1 µM) of 0.519. The relative viability (PC-3 [JPC-3]; first compound 0.3162 µM) was 0.538, the relative viability (PC-3 [JPC-3]; first compound 1 µM) was 0.446 and the relative viability (LOU-NH91; first compound 0.01 µM) was 0.664. For the same molecule, the relative viability (LOU-NH91; first compound 0.03162 µM) was 0.746, the relative viability (LOU-NH91; first compound 0.1 µM) was 0.824 and the relative viability (LOU-NH91; first compound 0.3162 µM) was 0.885. The relative viability (LOU-NH91; first compound 1 µM) was 0.737, the relative viability (H3255; first compound 0.01 µM) was 0.26 and the relative viability (H3255; first compound 0.03162 µM) was 0.235. The relative viability (H3255; first compound 0.1 µM) was 0.25, the relative viability (H3255; first compound 0.3162 µM) was 0.258 and the relative viability (H3255; first compound 1 µM) was 0.227. For the same molecule, the relative viability (201T; first compound 0.01 µM) was 1.03, the relative viability (201T; first compound 0.03162 µM) was 1.04 and the relative viability (201T; first compound 0.1 µM) was 1.12. It also gave a relative viability (201T; first compound 0.3162 µM) of 1.08, a relative viability (201T; first compound 1 µM) of 0.884 and a relative viability (NCI-H647; first compound 0.01 µM) of 1.22. The relative viability (NCI-H647; first compound 0.03162 µM) was 1.25, the relative viability (NCI-H647; first compound 0.1 µM) was 1.28 and the relative viability (NCI-H647; first compound 0.3162 µM) was 1.48. For the same molecule, the relative viability (NCI-H647; first compound 1 µM) was 0.493, the relative viability (LCLC-97TM1; first compound 0.03162 µM) was 0.958 and the relative viability (LCLC-97TM1; first compound 0.1 µM) was 1.13. For the same molecule, the relative viability (LCLC-97TM1; first compound 0.3162 µM) was 0.923, the relative viability (LCLC-97TM1; first compound 1 µM) was 1.12 and the relative viability (BEN; first compound 0.01 µM) was 0.76. The relative viability (BEN; first compound 0.03162 µM) was 0.539, the relative viability (BEN; first compound 0.1 µM) was 0.767 and the relative viability (BEN; first compound 0.3162 µM) was 0.835. The relative viability (BEN; first compound 1 µM) was 0.651, the relative viability (NCI-H1975; first compound 0.01 µM) was 1.02 and the relative viability (NCI-H1975; first compound 0.03162 µM) was 0.882. It also gave a relative viability (NCI-H1975; first compound 0.1 µM) of 0.952, a relative viability (NCI-H1975; first compound 0.3162 µM) of 1.12 and a relative viability (NCI-H1975; first compound 1 µM) of 0.693. For the same molecule, the relative viability (EPLC-272H; first compound 0.01 µM) was 1.05, the relative viability (EPLC-272H; first compound 0.1 µM) was 0.956 and the relative viability (EPLC-272H; first compound 0.3162 µM) was 0.922. The relative viability (EPLC-272H; first compound 1 µM) was 0.642, the relative viability (HCC-44; first compound 0.01 µM) was 1.07 and the relative viability (HCC-44; first compound 0.03162 µM) was 1.05. It also gave a relative viability (HCC-44; first compound 0.1 µM) of 1.26, a relative viability (HCC-44; first compound 0.3162 µM) of 1.28 and a relative viability (HCC-44; first compound 1 µM) of 0.865. For the same molecule, the relative viability (SW 1573; first compound 0.01 µM) was 1.11, the relative viability (SW 1573; first compound 0.03162 µM) was 1.1 and the relative viability (SW 1573; first compound 0.1 µM) was 1.19. It also gave a relative viability (SW 1573; first compound 0.3162 µM) of 0.978, a relative viability (SW 1573; first compound 1 µM) of 1.12 and a relative viability (NCI-H2085; first compound 0.01 µM) of 0.791. The relative viability (NCI-H2085; first compound 0.03162 µM) was 0.691, the relative viability (NCI-H2085; first compound 0.1 µM) was 0.828 and the relative viability (NCI-H2085; first compound 0.3162 µM) was 0.85. The relative viability (NCI-H2085; first compound 1 µM) was 0.68, the relative viability (EKVX; first compound 0.01 µM) was 0.187 and the relative viability (EKVX; first compound 0.03162 µM) was 0.181. The relative viability (EKVX; first compound 0.1 µM) was 0.178, the relative viability (EKVX; first compound 0.3162 µM) was 0.207 and the relative viability (EKVX; first compound 1 µM) was 0.207. The relative viability (COR-L 105; first compound 0.01 µM) was 0.386, the relative viability (COR-L 105; first compound 0.03162 µM) was 0.361 and the relative viability (COR-L 105; first compound 0.1 µM) was 0.399. For the same molecule, the relative viability (COR-L 105; first compound 0.3162 µM) was 0.422, the relative viability (COR-L 105; first compound 1 µM) was 0.387 and the relative viability (NCI-H1666; first compound 0.01 µM) was 0.819. The relative viability (NCI-H1666; first compound 0.03162 µM) was 0.62, the relative viability (NCI-H1666; first compound 0.1 µM) was 0.604 and the relative viability (NCI-H1666; first compound 0.3162 µM) was 0.684. It also gave a relative viability (NCI-H1666; first compound 1 µM) of 0.498, a relative viability (NCI-H2170; first compound 0.01 µM) of 0.282 and a relative viability (NCI-H2170; first compound 0.03162 µM) of 0.269. It also gave a relative viability (NCI-H2170; first compound 0.1 µM) of 0.298, a relative viability (NCI-H2170; first compound 0.3162 µM) of 0.271 and a relative viability (NCI-H2170; first compound 1 µM) of 0.276. The relative viability (LU99A; first compound 0.01 µM) was 0.946, the relative viability (LU99A; first compound 0.03162 µM) was 0.924 and the relative viability (LU99A; first compound 0.1 µM) was 1.17. For the same molecule, the relative viability (LU99A; first compound 0.3162 µM) was 1.14, the relative viability (LU99A; first compound 1 µM) was 0.93 and the relative viability (HCC-827; first compound 0.01 µM) was 0.214. It also gave a relative viability (HCC-827; first compound 0.03162 µM) of 0.206, a relative viability (HCC-827; first compound 0.1 µM) of 0.177 and a relative viability (HCC-827; first compound 0.3162 µM) of 0.177. The relative viability (HCC-827; first compound 1 µM) was 0.172.
